Test results from patent publication US9163021B2, “Pyrrolo[3,2-c]pyridine tropomyosin-related kinase inhibitors” (Pfizer Limited, priority 2012, dated 2015).

target: TRKA (Homo sapiens (Human), UniProt P04629); test: Isolated TRK enzyme assay (HTRF KinEASE-TK), PV3144 TrkA enzyme assay; assay type: biochemical; conditions: arithmetic mean where more than one reading
In short: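 Kinase (recombinant His-TrkA cytoplasmic domain, ATP-preactivated 20 min) met compound 20 min, then biotinylated TK substrate (1 µM final) with Mg2+/DTT buffer; HTRF detection.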

Chain of TRKA (P04629 441-796): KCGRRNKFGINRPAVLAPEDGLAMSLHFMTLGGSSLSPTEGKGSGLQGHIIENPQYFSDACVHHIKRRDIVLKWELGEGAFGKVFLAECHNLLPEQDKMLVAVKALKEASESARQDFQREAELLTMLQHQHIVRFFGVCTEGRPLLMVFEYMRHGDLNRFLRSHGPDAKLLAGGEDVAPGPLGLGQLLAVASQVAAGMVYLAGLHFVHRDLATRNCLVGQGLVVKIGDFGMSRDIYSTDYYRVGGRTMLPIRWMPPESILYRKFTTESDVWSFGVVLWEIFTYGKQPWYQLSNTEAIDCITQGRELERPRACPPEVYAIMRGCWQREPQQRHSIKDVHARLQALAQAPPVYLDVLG

Row | IC50 [nM] | SMILES
1 | 15.8 | Cc1oc(C2CC2)nc1CC(=O)Nc1cc(C(=O)c2cn(C(C)C)c3ccncc23)ccn1 [Example 78, 2-(2-cyclopropyl-5-methyl-1,3-oxazol-4-yl)-N-(4-{[1-(propan-2-yl)-1H-pyrrolo[3,2-c]pyridin-3-yl]carbonyl}pyridin-2-yl)acetamide]
2 | 67 | CC(C)n1cc(C(=O)c2ccnc(NC(=O)Cc3ccc(F)cn3)c2)c2cnccc21 [Example 81, 2-(5-fluoropyridin-2-yl)-N-(4-{[1-(propan-2-yl)-1H-pyrrolo[3,2-c]pyridin-3-yl]carbonyl}pyridin-2-yl)acetamide]
3 | 6.16 | CC(C)n1cc(C(=O)c2ccnc(NC(=O)Cc3ccc(Cl)cn3)c2)c2cnccc21 [Example 82, 2-(5-chloropyridin-2-yl)-N-(4-{[1-(propan-2-yl)-1H-pyrrolo[3,2-c]pyridin-3-yl]carbonyl}pyridin-2-yl)acetamide]
4 | 13.8 | CC(C)n1cc(C(=O)c2ccnc(NC(=O)Cc3cccc(Cl)c3)c2)c2cnccc21 [Example 96, 2-(3-chlorophenyl)-N-(4-{[1-(propan-2-yl)-1H-pyrrolo[3,2-c]pyridin-3-yl]carbonyl}pyridin-2-yl)acetamide]
5 | 31.1 | CC(C)n1cc(C(=O)c2ccnc(NC(=O)Cc3cccc(CC(C)(C)O)c3)c2)c2cnccc21 [Example 97, 2-[3-(2-hydroxy-2-methylpropyl)phenyl]-N-(4-{[1-(propan-2-yl)-1H-pyrrolo[3,2-c]pyridin-3-yl]carbonyl}pyridin-2-yl)acetamide]
6 | 40.6 | CC(C)c1cn(CC(=O)Nc2cc(C(=O)c3cn(C(C)C)c4ccncc34)ccn2)nn1 [Example 98, N-(4-{[1-(propan-2-yl)-1H-pyrrolo[3,2-c]pyridin-3-yl]carbonyl}pyridin-2-yl)-2[4-(propan-2-yl)-1H-1,2,3-triazol-1-yl]acetamide]
7 | 42.9 | CC(C)n1cc(C(=O)c2ccnc(NC(=O)Cn3cc(Cl)cn3)c2)c2cnccc21 [Example 99, 2-(4-chloro-1H-pyrazol-1-yl)-N-(4-{[1-(propan-2-yl)-1H-pyrrolo[3,2-c]pyridin-3-yl]carbonyl}pyridin-2-yl)acetamide]
8 | 51.7 | COc1ccc(CC(=O)Nc2cc(C(=O)c3cn(C(C)C)c4ccncc34)ccn2)cc1 [Example 101, 2-(4-methoxyphenyl)-N-(4-{[1-(propan-2-yl)-1H-pyrrolo[3,2-c]pyridin-3-yl]carbonyl}pyridin-2-yl)acetamide]
9 | 7450 | CC(C)n1cc(C(=O)c2ccnc(NC(=O)Cn3ccnc3)c2)c2cnccc21 [Example 102, 2-(1H-imidazol-1-yl)-N-(4-{[1-(propan-2-yl)-1H-pyrrolo[3,2-c]pyridin-3-yl]carbonyl}pyridin-2-yl)acetamide]
10 | 15.2 | CC(C)n1cc(C(=O)c2ccnc(NC(=O)Cc3ccc(Cl)cc3)c2)c2cnccc21 [Example 103, 2-(4-chlorophenyl)-N-(4-{[1-(propan-2-yl)-1H-pyrrolo[3,2-c]pyridin-3-yl]carbonyl}pyridin-2yl)acetamide]
11 | 13.8 | Cc1cc(C(F)(F)F)nn1CC(=O)Nc1cc(C(=O)c2cn(C(C)C)c3ccncc23)ccn1 [Example 104, 2-[5-methyl-3-(trifluoromethyl)-1H-pyrazol-1-yl]-N-(4-{[1-(propan-2-yl)-1H-pyrrolo[3,2-c]pyridin-3-yl]carbonyl}pyridin-2-yl)acetamide]
12 | 108 | CC(C)n1cc(C(=O)c2ccnc(NC(=O)Cc3ccccc3Cl)c2)c2cnccc21 [Example 105, 2-(2-chlorophenyl)-N-(4-{[1-(propan-2-yl)-1H-pyrrolo[3,2-c]pyridin-3-yl]carbonyl}pyridin-2-yl)acetamide]
13 | 17.9 | CC(C)n1cc(C(=O)c2ccnc(NC(=O)Cc3ccc(F)cc3F)c2)c2cnccc21 [Example 106, 2-(2,4-difluorophenyl)-N-(4-{[1-(propan-2-yl)-1H-pyrrolo[3,2-c]pyridin-3-yl]carbonyl}pyridin-2-yl)acetamide]
14 | 64 | CC(C)n1cc(C(=O)c2ccnc(NC(=O)Cc3ccccc3)c2)c2cnccc21 [Example 107, 2-phenyl-N-(4-{[1-(propan-2-yl)-1H-pyrrolo[3,2-c]pyridin-3-yl]carbonyl}pyridin-2-yl)acetamide]
15 | 640 | COc1cccc(CC(=O)Nc2cc(C(=O)c3cn(C(C)C)c4ccncc34)ccn2)c1 [Example 108, 2-(3-methoxyphenyl)-N-(4-{[1-(propan-2-yl)-1H-pyrrolo[3,2-c]pyridin-3-yl]carbonyl}pyridin-2-yl)acetamide]
16 | 87.1 | Cc1ccn(CC(=O)Nc2cc(C(=O)c3cn(C(C)C)c4ccncc34)ccn2)n1 [Example 109, 2-(3-methyl-1H-pyrazol-1-yl)-N-(4-{[1-(propan-2-yl)-1H-pyrrolo[3,2-c]pyridin-3-yl]carbonyl}pyridin-2-yl)acetamide]
17 | 3330 | CC(C)n1cc(C(=O)c2ccnc(NC(=O)Cc3cnccn3)c2)c2cnccc21 [Example 110, N-(4-{[1-(propan-2-yl)-1H-pyrrolo[3,2-c]pyridin-3-yl]carbonyl}pyridin-2-yl)-2-(pyrazin-2-yl)acetamide]
18 | 96.8 | CC(C)c1ccnn1CC(=O)Nc1cc(C(=O)c2cn(C(C)C)c3ccncc23)ccn1 [Example 111, 2-[5-(propan-2-yl)-1H-pyrazol-1-yl]-N-(4-{[1-(propan-2-yl)-1H-pyrrolo[3,2-c]pyridin-3-yl]carbonyl}pyridin-2-yl)acetamide]

Second part, the compound before the results:

Row | SMILES | IC50 [nM]
19 | CC(C)n1cc(C(=O)c2ccnc(NC(=O)Cc3nc(C4CC4)oc3C3CC3)c2)c2cnccc21 [Example 79, 2-(2,5-dicyclopropyl-1,3-oxazol-4-yl)-N-(4-{[1-(propan-2-yl)-1H-pyrrolo[3,2-c]pyridin-3-yl]carbonyl}pyridin-2-yl)acetamide] | 26.1
20 | COCc1nc(CC(=O)Nc2cc(C(=O)c3cn(C(C)C)c4ccncc34)ccn2)c(C2CC2)o1 [Example 80, 2-[5-cyclopropyl-2-(methoxymethyl)-1,3-oxazol-4-yl]-N-(4-{[1-(propan-2-yl)-1H-pyrrolo[3,2-c]pyridin-3-yl]carbonyl}pyridin-2-yl)acetamide] | 357
21 | CC(C)n1cc(C(=O)c2cc(NC(=O)Cn3cc(C(F)(F)F)nn3)ccn2)c2cncc(F)c21 [Example 83, N-(2-{[7-fluoro-1-(propan-2-yl)-1H-pyrrolo[3,2-c]pyridin-3-yl]carbonyl}pyridin-4-yl)-2[4-(trifluoromethyl)-1H-1,2,3-triazol-1-yl]acetamide] | 344
22 | CC(C)n1cc(C(=O)c2cc(NC(=O)Cc3ccc(Cl)cc3)ccn2)c2cncc(F)c21 [Example 85, 2-(4-chlorophenyl)-N-(2-{[7-fluoro-1-(propan-2-yl)-1H-pyrrolo[3,2-c]pyridin-3-yl]carbonyl}pyridin-4-yl)acetamide] | 23.3
23 | CC(C)n1cc(C(=O)c2cncc(NC(=O)Cn3cc(C(F)(F)F)nn3)c2)c2cncc(F)c21 [Example 87, N-(5-{[7-fluoro-1-(propan-2-yl)-1H-pyrrolo[3,2-c]pyridin-3-yl]carbonyl}pyridin-3-yl)-2-[4-(trifluoromethyl)-1H-1,2,3-triazol-1-yl]acetamide] | 29
24 | CC(C)n1cc(C(=O)c2cncc(NC(=O)Cc3ccc(F)cn3)c2)c2cncc(F)c21 [Example 88, N-(5-{[7-fluoro-1-(propan-2-yl)-1H-pyrrolo[3,2-c]pyridin-3-yl]carbonyl}pyridin-3-yl)-2-(5-fluoropyridin-2-yl)acetamide] | 68.4
25 | CC(C)n1cc(C(=O)c2cncc(NC(=O)Cn3cc(C4CC4)nn3)c2)c2cncc(F)c21 [Example 89, 2-(4-cyclopropyl-1H-1,2,3-triazol-1-yl)-N-(5-{[7-fluoro-1-(propan-2-yl)-1H-pyrrolo[3,2-c]pyridin-3-yl]carbonyl}pyridin-3-yl)acetamide] | 82.4
26 | CC(C)n1cc(C(=O)c2cncc(NC(=O)Cn3ccc(C4CC4)n3)c2)c2cncc(F)c21 [Example 90, 2-(3-cyclopropyl-1H-pyrazol-1-yl)-N-(5-{[7-fluoro-1-(propan-2-yl)-1H-pyrrolo[3,2-c]pyridin-3-yl]carbonyl}pyridin-3-yl)acetamide] | 19.6
27 | CC(C)n1cc(C(=O)c2cncc(NC(=O)Cn3cc(C4CC4)cn3)c2)c2cncc(F)c21 [Example 91, 2-(4-cyclopropyl-1H-pyrazol-1-yl)-N-(5-{[7-fluoro-1-(propan-2-yl)-1H-pyrrolo[3,2-c]pyridin-3-yl]carbonyl}pyridin-3-yl)acetamide] | 15
28 | CC(C)(CO)n1cc(C(=O)c2cncc(NC(=O)Cc3ccc(C#N)cc3)c2)c2cncc(F)c21 [Example 92, 2-(4-cyanophenyl)-N-(5-{[7-fluoro-1-(1-hydroxy-2-methylpropan-2-yl)-1H-pyrrolo[3,2-c]pyridin-3-yl]carbonyl}pyridin-3-yl)acetamide] | 39.8
29 | CC(C)(CO)n1cc(C(=O)c2cncc(NC(=O)Cc3ccc(F)cn3)c2)c2cncc(F)c21 [Example 93, N-(5-{[7-fluoro-1-(1-hydroxy-2-methylpropan-2-yl)-1H-pyrrolo[3,2-c]pyridin-3-yl]carbonyl}pyridin-3-yl)-2-(5-fluoropyridin-2-yl)acetamide] | 38.7
30 | CC(C)(CO)n1cc(C(=O)c2cncc(NC(=O)Cn3cc(C(F)(F)F)nn3)c2)c2cncc(F)c21 [Example 94, N-(5-{[7-fluoro-1-(1-hydroxy-2-methylpropan-2-yl)-1H-pyrrolo[3,2-c]pyridin-3-yl]carbonyl}pyridin-3-yl)-2-[4-(trifluoromethyl)-1H-1,2,3-triazol-1-yl]acetamide] | 20
31 | CC(C)(CO)n1cc(C(=O)c2cncc(NC(=O)Cn3ccc(C(F)(F)F)n3)c2)c2cncc(F)c21 [Example 95, N-(5-{[7-fluoro-1-(1-hydroxy-2-methylpropan-2-yl)-1H-pyrrolo[3,2-c]pyridin-3-yl]carbonyl}pyridin-3-yl)-2-[3-(trifluoromethyl)-1H-pyrazol-1-yl]acetamide] | 2.92
32 | CC(C)n1cc(C(=O)c2cncc(NC(=O)Cc3ccccc3Cl)c2)c2cnccc21 [Example 100, 2-(2-chlorophenyl)-N-(5-{[1-(propan-2-yl)-1H-pyrrolo[3,2-c]pyridin-3-yl]carbonyl}pyridin-3-yl)acetamide] | 2370
